Entries after “also recorded” stand apart in the source; their conditions may differ.
Columns and labels:
monkeys = details: cited from earlier work
adult zebrafish = test: Shoaling test in adult zebrafish; format: in vivo, zebrafish (Danio rerio)
Method: Adult and larval behavioural testing was performed between 9 AM and 4 PM. All fish were fed prior to and after experiments, and larvae were also given an additional feed at midday. Adult fish were of a 1:1 sex ratio, and focal fish and stimulus fish were size-matched. Adult fish and shoals were filmed using a web camera and Debut Video Capture Software (NCH Software, Greenwood Village, USA), and videos were analysed using EthoVision version 11 (Noldus, Wageningen, the Netherlands).
The shoaling test was performed to examine the effects of L-368,899 on social group behaviour, a test widely used to assess shoaling sensitivity to various drugs and experimental settings[75],[76].
The experimental setup comprised a 1.8 L trapezoidal tank (height 16 cm × length at the top 26 cm × length at the bottom 23 cm × width 6 cm, Aquaneering, San Diego, USA). Fifty-six zebrafish were randomly grouped into shoals of four (two males and two females) three days prior to the experiment. […] On day four all shoal members were weighed and injected with either fish Ringer’s (n = 6 shoals) or L-368,899 (n = 7 shoals), using the same procedure described above. Shoals were returned to their respective holding tanks for one hour to recover, and then gently transferred to test tanks, in which they were filmed for 15 minutes.
All data for the social preference and novel tank diving experiments in adults were extracted as processed means per minute from EthoVision. For the shoaling experiments, raw data was exported from EthoVision, and then post-processed by an in-house script written in Python 3.4, in order to compute IFD, NND, and FND as described elsewhere. For timelines, repeated measures analysis of variance (RM-ANOVA) was used. For pairwise comparisons of total means between groups, Student’s T-tests were used.

[1] = cited from earlier work
OT receptor = details: cited from earlier work
Excerpt: Intriguingly, the non-peptidergic OT receptor antagonist L-368,8 ...

Oxtrl = target: T1, Oxtrl (Danio rerio, UniProt E4W698); test: Inositol phosphate accumulation assay, antagonism of 1 μM zVP at Oxtrl; format: cell-based, zebrafish; details: stimulated with zVP
T1 construct: host or cells: HEK293
T1 sequence (E4W698 1-382): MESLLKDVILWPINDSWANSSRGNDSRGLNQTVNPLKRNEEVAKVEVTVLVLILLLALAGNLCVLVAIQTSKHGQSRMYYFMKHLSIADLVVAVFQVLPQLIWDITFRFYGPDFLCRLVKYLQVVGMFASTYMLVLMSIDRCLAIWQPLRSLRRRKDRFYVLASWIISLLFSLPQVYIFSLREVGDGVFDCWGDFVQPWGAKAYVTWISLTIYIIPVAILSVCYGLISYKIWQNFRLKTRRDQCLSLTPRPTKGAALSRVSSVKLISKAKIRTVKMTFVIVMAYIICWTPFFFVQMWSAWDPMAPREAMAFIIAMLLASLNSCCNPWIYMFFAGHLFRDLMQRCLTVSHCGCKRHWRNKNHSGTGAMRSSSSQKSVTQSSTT
Method: (§1) The receptor constructs were ordered from GeneScript and subcloned into a pcDNA3.1/CT-GFP-TOPO vector. The coding sequences of the GenBank entries NM_001199370.1 (oxtr), NM_001199369.1 (oxtrl), NM_001301114.1 (avpr1aa), and NM_001297676.1 (avpr1ab) were used for synthesis. The stop codons were removed, and an additional […] was added to facilitate hybrid protein expression with GFP in frame from the vector. The GCCACC Kozak sequence was inserted before the start codons. After transformation of the plasmid constructs into TOP10 competent cells (Thermo Fisher Scientific), the Maxiprep (Thermo Fisher Scientific) method was used to amplify the plasmids for transfection.
(§2) The Inositol phosphate accumulation assay was performed according to previous descriptions to measure the potency of different ligands for zebrafish different oxytocin related receptors. Each receptor construct was transfected into HEK293 cells using Lipofectamine 2000 (Thermo Fisher Scientific). Myo2-^3H-inositol (PerkinElmer) at 3 μCi/mL was added the day after transfection. […] Samples were mixed with OptiPhase HiSafe (PerkinElmer Waltham, MA, USA) and ^3H radioactivity was measured with a Tri-Carb 2910TR liquid scintillation counter (PerkinElmer Waltham, MA, USA). […]

Oxtr = target: T2, Oxtr (Danio rerio, UniProt E4W699); test: Inositol phosphate accumulation assay, antagonism of 1 μM zVP at Oxtr; format: cell-based, zebrafish; details: stimulated with zVP
T2 construct: host or cells: HEK293
T2 sequence (E4W699 1-388): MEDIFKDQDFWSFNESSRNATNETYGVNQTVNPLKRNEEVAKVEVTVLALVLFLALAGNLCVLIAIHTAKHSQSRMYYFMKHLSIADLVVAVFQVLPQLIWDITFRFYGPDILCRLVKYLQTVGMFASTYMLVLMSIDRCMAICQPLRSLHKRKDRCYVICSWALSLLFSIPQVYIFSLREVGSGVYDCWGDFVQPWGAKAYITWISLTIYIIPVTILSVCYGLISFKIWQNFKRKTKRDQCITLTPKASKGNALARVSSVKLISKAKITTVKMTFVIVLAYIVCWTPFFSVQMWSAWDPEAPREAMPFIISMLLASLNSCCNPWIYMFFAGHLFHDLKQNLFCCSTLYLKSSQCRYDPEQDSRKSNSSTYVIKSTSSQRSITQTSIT
Method: as §1, §2

Cc1ccccc1N1CCN(S(=O)(=O)C[C@]23CC[C@H](C[C@@H]2NC(=O)[C@@H](N)CCS(C)(=O)=O)C3(C)C)CC1 [L-368,899]
Behavioural effects one hour after treatment (monkeys): robust behavioural effects | Shoaling parameters vs vehicle, outlier vehicle shoal included (adult zebrafish; IFD, NND, FND, including outlier shoal): no significant differences | Social behaviour: Nearest neighbour distance (adult zebrafish; adult shoaling, shoals of four, 100 µg per gram fish i.p., 1 h before 15 min test, mean ± SEM, n = 7 shoals, vehicle 3.3 ± 0.2): 3.7 ± 0.1 cm | Social behaviour: Interfish distance (adult zebrafish; adult shoaling, shoals of four, 100 µg per gram fish i.p., 1 h before 15 min test, mean ± SEM, n = 7 shoals, vehicle 5.9 ± 0.3): 6.7 ± 0.2 cm | Social behaviour: Furthest neighbour distance (adult zebrafish; adult shoaling, shoals of four, 100 µg per gram fish i.p., 1 h before 15 min test, mean ± SEM, n = 7 shoals, vehicle 8.7 ± 0.5): 9.8 ± 0.2 cm | Locomotion: Velocity (adult zebrafish; adult shoaling, shoals of four, 100 µg per gram fish i.p., 1 h before 15 min test, mean ± SEM, vehicle 3.6 ± 0.2, p = 0.30): 3.2 ± 0.3 cm/s | Locomotion: Distance (adult zebrafish; adult shoaling, shoals of four, 100 µg per gram fish i.p., 1 h before 15 min test, mean ± SEM, vehicle 207 ± 15, p = 0.37): 186 ± 17 cm/min | Shoaling, in words (adult zebrafish; adult zebrafish): potentially also shoaling behaviour; also recorded: tentative and small effect | Activity parameters vs vehicle, shoaling test (adult zebrafish; average distance p = 0.37, average velocity p = 0.30): no significant differences | Inter-fish distance (IFD) vs vehicle, outlier excluded (adult zebrafish; t(10) = 2.276, p = 0.046): significantly more spread out | Nearest neighbour distance (NND) vs vehicle, outlier excluded (adult zebrafish; t(10) = 2.324, p = 0.042): significantly more spread out | half-life [1]: about 2 hours | Inhibition of the OT receptor in mammals (OT receptor): specifically inhibit the mammalian OT receptor | Antagonism at Oxtrl, in words (Oxtrl): able to block zVP activation; also recorded: specifically inhibited; also recorded: potently antagonised | Antagonism at Oxtr, in words (Oxtr): able to block zVP activation; also recorded: specifically inhibited; also recorded: potently antagonised

Source: article PMC7096398, “Oxytocin Receptors Regulate Social Preference in Zebrafish” (Scientific Reports, 2020)
